# Patent US9451771B2, “Compositions and methods to attract the brown marmorated stink bug (BMSB), Halyomorpha halys” (United States of America as Represented by the Secretary of …, priority 2012, dated 2016)
# System: brown marmorated stink bug (BMSB), Halyomorpha halys
# Assay: Field trials of experimental pheromone constituents, baited black pyramid traps
# Format: in vivo
# Description: Field Bioassays. Field Trials of Experimental Pheromone Constituents: Pyramid traps based on dimensions previously used for native stink bugs (Leskey and Hogmire 2005, Hogmire and Leskey 2006) and for brown marmorated stink bugs (Leskey et al. 2012c) were used for all trials. […] Each panel was 1.22 m high, 52 cm wide at the base, and 7 cm wide at the top. Collection jars were constructed based on previously published dimensions (Hogmire and Leskey 2006) with internal cone opening of 1.6 cm with trimmed wire edging to reduce escape. In addition, a Hercon Vaportape™ II (Hercon Environmental, Emigsville, Pa.) was added as a killing agent to prevent escape from traps. In a preliminary study, addition of a killing agent increased trap captures ˜250%. Traps were deployed ˜5 meters from the border of apple and pear orchards at the Appalachian Fruit Research Station or in the border area between wood lots and row crops in Kearneysville, W. Va., Shepherdstown, W. Va., Keedysville, Md., and Beltsville, Md. Traps were spaced ˜50 meters apart. Traps were baited with compounds identified from headspace collections of male BMSB, synthesized and formulated into gray rubber septa or left unbaited.
# Fourteen trials were conducted between 19 Apr. to 20 Oct. 2011 (Table 3) and four trials between 20 Mar. to 10 Oct. 2012 (Table 4). Traps were checked a minimum of twice weekly and the treatments were re-randomized at each collection.
# All adults and nymphs were removed from traps and recorded. Hercon Vaportape™ strips were changed at four week intervals and lures were changed at two week intervals. Comparisons of adult and nymphal captures used the SAS GLM procedure to evaluate effect of treatment and replicate followed by Tukey's HSD if the model was significant. Appropriate transformations were used to stabilize normality if needed. The effect of sex was dropped from all models because it was never a significant factor.
# [1] = AFRS 2011, Trial One, 19 April-10 May
# [2] = AFRS 2011, Trial Seven, 8-19 August
# [3] = AFRS 2011, Trial Ten, 19 Sept.-4 Oct.
# [4] = Beltsville 2011, Trial One, 19 April-10 May
compound,measurement,setting,value
"CCC\C=C/C=C/C=C/C(=O)OC [Lure #3, Methyl (2E,4E,6Z)-decatrienoate]",Mean number BMSB adults (±SE) captured,[1],0.00 ± 0.00 per trap per sample
same,Mean number BMSB nymphs (±SE) captured,[1],0.00 ± 0.00 per trap per sample
same,Mean number BMSB adults (±SE) captured,[2],1.97 ± 0.37a per trap per sample
same,Mean number BMSB nymphs (±SE) captured,[2],34.55 ± 5.85a per trap per sample
same,Mean number BMSB adults (±SE) captured,[3],22.76 ± 4.41a per trap per sample
same,Mean number BMSB nymphs (±SE) captured,[3],1.24 ± 0.34a per trap per sample
same,Mean number BMSB adults (±SE) captured,[4],0.02 ± 0.02ab per treatment
same,Mean number BMSB nymphs (±SE) captured,[4],0.00 ± 0.00 per treatment
